Results on nine compounds are retold here after ChEMBL document CHEMBL1681684, “Structure based design of heat shock protein 90 inhibitors acting as anticancer agents” (Bioorg Med Chem, 2011).

Molecules are shown by their SMILES. pIC50: −log10 of the molar value.

The subject of one test is MCF7. The test is described as follows: Anticancer activity against human MCF7 cells by MTT assay. Format: functional, cell-based.
One may read the pIC50 as −log10 of the IC50, conventionally taken in molar units. A low value points to a high IC50. For the compound `COc1ccc(Nc2nc(NCc3ccco3)c3ccccc3n2)cc1`, the pIC50 was 5.14.

The next test concerns SK-MEL-2. The test is described as follows: Anticancer activity against human SK-MEL-2 cells by MTT assay. Format: functional, cell-based. (Tetrazolium assays rely on reduction of a dye to a coloured formazan, in cell work by metabolically active cells.)
Regarding `C[C@H](Nc1nc(N2CCNCC2)nc2ccccc12)c1ccccc1`, the pIC50 is 5.29.
Same read-out and setting: in the case of `Oc1ccc(C2=Nc3ccccc3S[C@H](c3ccccc3)C2)cc1` it was 4.33; in that of `COc1ccccc1N/N=C1/C(=O)N(C(N)=S)N=C1c1ccccc1`, 4.46; in that of `COc1cc(C2N(c3ccc(C)cc3)CCN2c2ccc(C)cc2)ccc1O`, 4.48.
Still for that read-out and setting: in the case of `O=S(=O)(NCCC(c1ccccc1)c1ccccc1)c1ccc(Cl)cc1` it was 4.72; in that of `O[C@H]1CCN(c2nc(Nc3cccc4c3CCCC4)c3ccccc3n2)C1`, 4.80.
Still for that read-out and setting: in the case of `O=S(=O)(Nc1ccccc1Oc1ccc(Cl)cc1Cl)c1ccccc1` it was 4.35; in that of `O=S(=O)(NCCc1c[nH]c2ccc(F)cc12)c1ccc(Br)cc1OC(F)(F)F`, 4.34.

The subject of another test is DU-145. The test is described as follows: Anticancer activity against human DU145 cells assessed as growth inhibition at 100 uM by MTT assay. It is filed as functional.
As usually defined, the inhibition is the percentage by which the read-out fell short of the control. For the compound `C[C@H](Nc1nc(N2CCNCC2)nc2ccccc12)c1ccccc1`, the inhibition at 100 µM turned out to be 87.2%.
The same measure, in the same setting: the value for `Oc1ccc(C2=Nc3ccccc3S[C@H](c3ccccc3)C2)cc1` was 59.9%.
On the same count and under the same terms, the value for `COc1ccccc1N/N=C1/C(=O)N(C(N)=S)N=C1c1ccccc1` was 48%; that for `COc1cc(C2N(c3ccc(C)cc3)CCN2c2ccc(C)cc2)ccc1O` was 40.7%.
On to `O=S(=O)(NCCC(c1ccccc1)c1ccccc1)c1ccc(Cl)cc1`, for which the inhibition at 100 µM was 73.5%.
Same read-out and setting: the value for `O[C@H]1CCN(c2nc(Nc3cccc4c3CCCC4)c3ccccc3n2)C1` was 88.7%.
Still for that read-out and setting: in the case of `O=S(=O)(Nc1ccccc1Oc1ccc(Cl)cc1Cl)c1ccccc1` it was 52.6%; in that of `O=S(=O)(NCCc1c[nH]c2ccc(F)cc12)c1ccc(Br)cc1OC(F)(F)F`, 44.4%.

For a further test, the system named is SK-MEL-2. The test is described as follows: Anticancer activity against human SK-MEL-2 cells assessed as growth inhibition at 100 uM by MTT assay. It is filed as functional.
On to `C[C@H](Nc1nc(N2CCNCC2)nc2ccccc12)c1ccccc1`, for which the inhibition at 100 µM is 85.6%.
Still for that read-out and setting: the value for `Oc1ccc(C2=Nc3ccccc3S[C@H](c3ccccc3)C2)cc1` was 57.1%.
Same read-out and setting: in the case of `COc1ccccc1N/N=C1/C(=O)N(C(N)=S)N=C1c1ccccc1` it was 61%; in that of `COc1cc(C2N(c3ccc(C)cc3)CCN2c2ccc(C)cc2)ccc1O`, 58.3%.
Still for that read-out and setting: in the case of `O=S(=O)(NCCC(c1ccccc1)c1ccccc1)c1ccc(Cl)cc1` it was 77.8%; in that of `O[C@H]1CCN(c2nc(Nc3cccc4c3CCCC4)c3ccccc3n2)C1`, 79.5%; in that of `O=S(=O)(Nc1ccccc1Oc1ccc(Cl)cc1Cl)c1ccccc1`, 43.9%.
In the case of `O=S(=O)(NCCc1c[nH]c2ccc(F)cc12)c1ccc(Br)cc1OC(F)(F)F`, the inhibition at 100 µM was found to be 34%.
Turning to `COc1ccc(Nc2nc(NCc3ccco3)c3ccccc3n2)cc1`, the inhibition at 100 µM was 89.3%.

Another test deals with SK-MEL-2. In words: Anticancer activity against human SK-MEL-2 cells assessed as growth inhibition at 10 uM by MTT assay. Format: functional.
In the case of `COc1ccc(Nc2nc(NCc3ccco3)c3ccccc3n2)cc1`, the inhibition at 10 µM came to 22.8%.

In the next test the test system is HT-29. In words: Anticancer activity against human HT-29 cells assessed as growth inhibition at 100 uM by MTT assay. Format: functional.
Regarding `C[C@H](Nc1nc(N2CCNCC2)nc2ccccc12)c1ccccc1`, the inhibition at 100 µM is 86.5%.
The same measure, in the same setting: in the case of `Oc1ccc(C2=Nc3ccccc3S[C@H](c3ccccc3)C2)cc1` it was 67.9%.
Same read-out and setting: in the case of `COc1ccccc1N/N=C1/C(=O)N(C(N)=S)N=C1c1ccccc1` it was 38%; in that of `COc1cc(C2N(c3ccc(C)cc3)CCN2c2ccc(C)cc2)ccc1O`, 64.8%.
Same read-out and setting: the value for `O=S(=O)(NCCC(c1ccccc1)c1ccccc1)c1ccc(Cl)cc1` was 87.5%.
Regarding `O[C@H]1CCN(c2nc(Nc3cccc4c3CCCC4)c3ccccc3n2)C1`, the inhibition at 100 µM worked out at 86.1%.
On the same count and under the same terms, the value for `O=S(=O)(Nc1ccccc1Oc1ccc(Cl)cc1Cl)c1ccccc1` was 51.1%; that for `O=S(=O)(NCCc1c[nH]c2ccc(F)cc12)c1ccc(Br)cc1OC(F)(F)F` was 63.5%.
Regarding `COc1ccc(Nc2nc(NCc3ccco3)c3ccccc3n2)cc1`, the inhibition at 100 µM stood at 90.9%.

A further test has as its system SK-OV-3. The test is described as follows: Anticancer activity against human SKOV3 cells by MTT assay. Format: functional, cell-based.
`C[C@H](Nc1nc(N2CCNCC2)nc2ccccc12)c1ccccc1` gave a pIC50 of 4.84.
The compound `Oc1ccc(C2=Nc3ccccc3S[C@H](c3ccccc3)C2)cc1` showed a pIC50 of 4.21.
On the same count and under the same terms, the value for `COc1ccccc1N/N=C1/C(=O)N(C(N)=S)N=C1c1ccccc1` was 4.12.
On the same count and under the same terms, in the case of `COc1cc(C2N(c3ccc(C)cc3)CCN2c2ccc(C)cc2)ccc1O` it was < 4.00; in that of `O=S(=O)(NCCC(c1ccccc1)c1ccccc1)c1ccc(Cl)cc1`, 4.46; in that of `O[C@H]1CCN(c2nc(Nc3cccc4c3CCCC4)c3ccccc3n2)C1`, 4.77.
On the same count and under the same terms, in the case of `O=S(=O)(Nc1ccccc1Oc1ccc(Cl)cc1Cl)c1ccccc1` it was < 4.00; in that of `O=S(=O)(NCCc1c[nH]c2ccc(F)cc12)c1ccc(Br)cc1OC(F)(F)F`, < 4.00.

Another test deals with A549. In words: Anticancer activity against human A549 cells assessed as growth inhibition at 100 uM by MTT assay. Format: functional.
Turning to `C[C@H](Nc1nc(N2CCNCC2)nc2ccccc12)c1ccccc1`, the inhibition at 100 µM was 90.2%.
Same read-out and setting: the value for `Oc1ccc(C2=Nc3ccccc3S[C@H](c3ccccc3)C2)cc1` was 55.8%.
On the same count and under the same terms, in the case of `COc1ccccc1N/N=C1/C(=O)N(C(N)=S)N=C1c1ccccc1` it was 51.9%; in that of `COc1cc(C2N(c3ccc(C)cc3)CCN2c2ccc(C)cc2)ccc1O`, 51.9%; in that of `O=S(=O)(NCCC(c1ccccc1)c1ccccc1)c1ccc(Cl)cc1`, 65.7%.
The same measure, in the same setting: the value for `O[C@H]1CCN(c2nc(Nc3cccc4c3CCCC4)c3ccccc3n2)C1` was 88.8%; that for `O=S(=O)(Nc1ccccc1Oc1ccc(Cl)cc1Cl)c1ccccc1` was 55%; that for `O=S(=O)(NCCc1c[nH]c2ccc(F)cc12)c1ccc(Br)cc1OC(F)(F)F` was 43.5%.

The subject of the next test is HT-29. The test is described as follows: Anticancer activity against human HT-29 cells by MTT assay. Format: functional, cell-based.
Consider `C[C@H](Nc1nc(N2CCNCC2)nc2ccccc12)c1ccccc1`, for which the pIC50 was 5.39.
On the same count and under the same terms, in the case of `Oc1ccc(C2=Nc3ccccc3S[C@H](c3ccccc3)C2)cc1` it was 4.39; in that of `COc1ccccc1N/N=C1/C(=O)N(C(N)=S)N=C1c1ccccc1`, 4.31.
With `COc1cc(C2N(c3ccc(C)cc3)CCN2c2ccc(C)cc2)ccc1O`, the pIC50 is 4.56.
On the same count and under the same terms, the value for `O=S(=O)(NCCC(c1ccccc1)c1ccccc1)c1ccc(Cl)cc1` was 4.73.
Still for that read-out and setting: the value for `O[C@H]1CCN(c2nc(Nc3cccc4c3CCCC4)c3ccccc3n2)C1` was 5.15; that for `O=S(=O)(Nc1ccccc1Oc1ccc(Cl)cc1Cl)c1ccccc1` was 4.19.
Same read-out and setting: in the case of `O=S(=O)(NCCc1c[nH]c2ccc(F)cc12)c1ccc(Br)cc1OC(F)(F)F` it was 4.48; in that of `COc1ccc(Nc2nc(NCc3ccco3)c3ccccc3n2)cc1`, 6.04.

Another test deals with SK-OV-3. The test is described as follows: Anticancer activity against human SKOV3 cells assessed as growth inhibition at 100 uM by MTT assay. It is filed as functional.
In the case of `C[C@H](Nc1nc(N2CCNCC2)nc2ccccc12)c1ccccc1`, the inhibition at 100 µM was 86.6%.
Same read-out and setting: in the case of `Oc1ccc(C2=Nc3ccccc3S[C@H](c3ccccc3)C2)cc1` it was 51.6%.
For `COc1ccccc1N/N=C1/C(=O)N(C(N)=S)N=C1c1ccccc1`, the inhibition at 100 µM came out at 45.5%.
On the same count and under the same terms, in the case of `COc1cc(C2N(c3ccc(C)cc3)CCN2c2ccc(C)cc2)ccc1O` it was 34.3%.
On the same count and under the same terms, in the case of `O=S(=O)(NCCC(c1ccccc1)c1ccccc1)c1ccc(Cl)cc1` it was 62%; in that of `O[C@H]1CCN(c2nc(Nc3cccc4c3CCCC4)c3ccccc3n2)C1`, 89.5%; in that of `O=S(=O)(Nc1ccccc1Oc1ccc(Cl)cc1Cl)c1ccccc1`, 40.1%.
Same read-out and setting: in the case of `O=S(=O)(NCCc1c[nH]c2ccc(F)cc12)c1ccc(Br)cc1OC(F)(F)F` it was 22.5%; in that of `COc1ccc(Nc2nc(NCc3ccco3)c3ccccc3n2)cc1`, 92.5%.

The next test concerns DU-145. The test is described as follows: Anticancer activity against human DU145 cells assessed as growth inhibition at 10 uM by MTT assay. It is filed as functional.
Turning to `COc1ccc(Nc2nc(NCc3ccco3)c3ccccc3n2)cc1`, the inhibition at 10 µM is 28.7%.

The subject of the next test is DU-145. The test is described as follows: Anticancer activity against human DU145 cells by MTT assay. It is filed as functional, cell-based.
In turn, `C[C@H](Nc1nc(N2CCNCC2)nc2ccccc12)c1ccccc1` gave a pIC50 of 4.90.
On the same count and under the same terms, in the case of `Oc1ccc(C2=Nc3ccccc3S[C@H](c3ccccc3)C2)cc1` it was 4.51; in that of `COc1ccccc1N/N=C1/C(=O)N(C(N)=S)N=C1c1ccccc1`, 4.33.
The same measure, in the same setting: the value for `COc1cc(C2N(c3ccc(C)cc3)CCN2c2ccc(C)cc2)ccc1O` was 4.37; that for `O=S(=O)(NCCC(c1ccccc1)c1ccccc1)c1ccc(Cl)cc1` was 4.58; that for `O[C@H]1CCN(c2nc(Nc3cccc4c3CCCC4)c3ccccc3n2)C1` was 4.77.
On the same count and under the same terms, in the case of `O=S(=O)(Nc1ccccc1Oc1ccc(Cl)cc1Cl)c1ccccc1` it was 4.36; in that of `O=S(=O)(NCCc1c[nH]c2ccc(F)cc12)c1ccc(Br)cc1OC(F)(F)F`, 4.41; in that of `COc1ccc(Nc2nc(NCc3ccco3)c3ccccc3n2)cc1`, 4.61.

The test system of a further test is A549. The test is described as follows: Anticancer activity against human A549 cells by MTT assay. Format: functional, cell-based.
In turn, `C[C@H](Nc1nc(N2CCNCC2)nc2ccccc12)c1ccccc1` had a pIC50 of 4.88.
Still for that read-out and setting: the value for `Oc1ccc(C2=Nc3ccccc3S[C@H](c3ccccc3)C2)cc1` was 4.48; that for `COc1ccccc1N/N=C1/C(=O)N(C(N)=S)N=C1c1ccccc1` was 4.35; that for `COc1cc(C2N(c3ccc(C)cc3)CCN2c2ccc(C)cc2)ccc1O` was 4.56.
On the same count and under the same terms, the value for `O=S(=O)(NCCC(c1ccccc1)c1ccccc1)c1ccc(Cl)cc1` was 4.51; that for `O[C@H]1CCN(c2nc(Nc3cccc4c3CCCC4)c3ccccc3n2)C1` was 4.89.
The same measure, in the same setting: in the case of `O=S(=O)(Nc1ccccc1Oc1ccc(Cl)cc1Cl)c1ccccc1` it was 4.45; in that of `O=S(=O)(NCCc1c[nH]c2ccc(F)cc12)c1ccc(Br)cc1OC(F)(F)F`, 4.26.

A further test has as its system HT-29. In words: Anticancer activity against human HT-29 cells assessed as growth inhibition at 10 uM by MTT assay. Format: functional.
With `COc1ccc(Nc2nc(NCc3ccco3)c3ccccc3n2)cc1`, the inhibition at 10 µM amounted to 64.2%.
